Several values for one entry are separate records, joined by “and”; a condition that tells them apart may be missing. Equal values may be shown once. Read-outs that look alike come from different tables or passages of the source.
Tests used:
hCA II = target: T1, hCA II (Homo sapiens, UniProt P00918); assay: hCA II inhibition, stopped-flow CO2 hydration assay; assay type: biochemical; conditions: stopped-flow technique, mean of three independent experiments
T1 construct: made in house
Method: (§1) An Applied Photophysics stopped-flow instrument was used for measuring hCA-catalyzed CO2 hydration activity. […] However, the background activity from the uncatalyzed reaction was always subtracted when IC50 values were obtained by using the data analysis software for the stopped-flow instrument. […] The uncatalyzed rates were measured in the same manner and were subtracted from the total observed rates. Stock solutions of the inhibitor (0.1 mM) were prepared in distilled-deionized water, and dilutions up to 0.01 nM were performed thereafter with the assay buffer. Inhibitor and enzyme solutions were preincubated together for 15 min at room temperature prior to the assay, to allow for the formation of the E–I complex. The inhibition constants (Ki) were obtained by the nonlinear least-squares methods using PRISM 3 and the Cheng-Prusoff equation as reported earlier and are presented as the mean from at least three different determinations. All hCA isoforms were recombinant proteins obtained in-house, as reported earlier.

hCA I = target: T2, hCA I (Homo sapiens, UniProt P00915); assay: hCA I inhibition, stopped-flow CO2 hydration assay; assay type: biochemical; conditions: stopped-flow technique, mean of three independent experiments
T2 construct: made in house
Method: as §1

hMAO-A = target: T3, hMAO-A (Homo sapiens, UniProt P21397); assay: hMAO-A inhibition, kynuramine fluorescence assay; assay type: biochemical
T3 construct: purchased Sigma-Aldrich
T3 sequence (P21397 1-527): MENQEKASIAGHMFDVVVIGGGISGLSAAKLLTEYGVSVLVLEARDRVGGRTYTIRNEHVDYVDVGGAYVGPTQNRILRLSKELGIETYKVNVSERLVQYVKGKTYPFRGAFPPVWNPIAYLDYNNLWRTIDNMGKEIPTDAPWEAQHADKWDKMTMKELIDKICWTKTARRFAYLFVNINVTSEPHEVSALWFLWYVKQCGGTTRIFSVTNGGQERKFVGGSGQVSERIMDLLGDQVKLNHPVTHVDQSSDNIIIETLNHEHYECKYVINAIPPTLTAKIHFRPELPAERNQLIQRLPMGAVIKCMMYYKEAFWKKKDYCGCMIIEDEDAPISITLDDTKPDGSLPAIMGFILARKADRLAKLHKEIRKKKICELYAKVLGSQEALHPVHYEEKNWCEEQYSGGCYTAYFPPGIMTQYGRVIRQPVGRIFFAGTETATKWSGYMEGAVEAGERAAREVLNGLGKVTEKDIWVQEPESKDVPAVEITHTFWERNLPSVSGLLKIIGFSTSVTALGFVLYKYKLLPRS
Method: (§2) Activity measurements (IC50) for hMAO-A and hMAO-B were carried out as reported in the literature. Recombinant human MAO-A and MAO-B were obtained commercially (Sigma-Aldrich, Cape Town, South Africa) and were used as enzyme sources. Kynuramine is a non-specific substrate and serves as a substrate for both hMAO isoforms. The hMAOs metabolize kynuramine to produce 4-hydroxyquinoline, which was measured at the endpoint of the enzyme reactions by fluorescence spectrophotometry.

hMAO-B = target: T4, hMAO-B (Homo sapiens, UniProt P27338); assay: hMAO-B inhibition, kynuramine fluorescence assay; assay type: biochemical; conditions: recombinant human MAO-B, kynuramine substrate; mean ± SD of three independent experiments
T4 construct: purchased Sigma-Aldrich
T4 sequence (P27338 1-520): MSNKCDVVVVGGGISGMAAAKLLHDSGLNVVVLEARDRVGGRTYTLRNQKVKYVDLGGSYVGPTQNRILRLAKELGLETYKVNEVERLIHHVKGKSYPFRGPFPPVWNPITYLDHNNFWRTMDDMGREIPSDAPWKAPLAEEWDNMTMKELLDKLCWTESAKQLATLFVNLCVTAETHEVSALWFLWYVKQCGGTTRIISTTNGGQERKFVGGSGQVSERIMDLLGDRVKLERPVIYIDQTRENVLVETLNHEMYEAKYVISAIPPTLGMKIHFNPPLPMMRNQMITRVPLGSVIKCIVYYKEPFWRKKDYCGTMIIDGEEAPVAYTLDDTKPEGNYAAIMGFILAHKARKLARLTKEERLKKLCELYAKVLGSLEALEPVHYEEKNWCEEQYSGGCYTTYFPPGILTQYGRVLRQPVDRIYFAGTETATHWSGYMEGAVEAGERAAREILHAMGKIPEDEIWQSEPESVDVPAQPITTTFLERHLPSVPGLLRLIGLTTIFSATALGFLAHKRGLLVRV
Method: as §2

hCA XII = target: T5, hCA XII (Homo sapiens, UniProt O43570); assay: hCA XII inhibition, stopped-flow CO2 hydration assay; assay type: biochemical; conditions: for SI hCA XII over hCA I or hCA II: Ki hCA I or II (nM)/Ki hCA XII (nM); for SI hCA XII over hCA IX: Ki hCA IX (nM)/Ki hCA XII (nM)
T5 construct: made in house
Method: as §1

hCA IX = target: T6, hCA IX (Homo sapiens, UniProt Q16790); assay: hCA IX inhibition, stopped-flow CO2 hydration assay; assay type: biochemical; conditions: for Ki: stopped-flow technique, mean of three independent experiments
T6 construct: made in house
Method: as §1

[1] = recombinant human MAO-A, kynuramine substrate, mean ± SD of three independent experiments
[2] = Ki hCA I or II (nM)/Ki hCA IX (nM)
[3] = stopped-flow technique, mean of three independent experiments, read-out: Ki hCA XII

T2 sequence (P00915 whole entry): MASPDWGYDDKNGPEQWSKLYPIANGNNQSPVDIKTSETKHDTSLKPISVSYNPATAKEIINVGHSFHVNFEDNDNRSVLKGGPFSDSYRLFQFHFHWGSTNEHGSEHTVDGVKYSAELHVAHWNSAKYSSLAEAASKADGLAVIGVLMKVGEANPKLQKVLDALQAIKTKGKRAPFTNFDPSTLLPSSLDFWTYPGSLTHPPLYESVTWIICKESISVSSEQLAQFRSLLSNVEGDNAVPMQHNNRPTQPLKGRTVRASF
T5 sequence (O43570 25-354): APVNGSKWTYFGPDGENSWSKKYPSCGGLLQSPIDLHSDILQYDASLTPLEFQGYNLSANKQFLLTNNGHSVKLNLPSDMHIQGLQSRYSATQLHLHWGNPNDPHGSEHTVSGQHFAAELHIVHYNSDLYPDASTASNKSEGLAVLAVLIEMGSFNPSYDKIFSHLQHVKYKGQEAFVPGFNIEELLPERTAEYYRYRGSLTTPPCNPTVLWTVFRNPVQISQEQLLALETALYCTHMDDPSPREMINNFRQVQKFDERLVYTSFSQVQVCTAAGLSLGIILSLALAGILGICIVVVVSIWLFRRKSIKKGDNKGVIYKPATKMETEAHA

Structure (SMILES) | Ki (hCA II) | melting point | Ki (hCA I) | IC50 (hMAO-A; [1]) | IC50 (hMAO-B) | Ki (hCA XII) | SI hCA XII over hCA I or hCA II (hCA XII) | SI hCA XII over hCA IX (hCA XII) | SI hCA IX over hCA I or hCA II (hCA IX; [2]) | Ki (hCA IX) | Ki (hCA XII; [3]) | SI hCA IX over hCA I or hCA II (hCA IX) | SI MAO-B/MAO-A (hMAO-A; IC50 MAO-B/IC50 MAO-A, selectivity for hMAO-A) | MAO-A (IC50 μM) (hMAO-A; [1]) | MAO-B (IC50 μM) (hMAO-B)
COC(=O)[C@H](Cc1ccccc1)NC(=O)N[C@@H](C)C(=O)Nc1ccc2c(C)cc(=O)oc2c1 [Compound 18, MeO-Phe-CO-Ala-AMC] | > 10 µM | 177 to 183 °C | > 10 µM | 21.8 ± 0.092 µM | 78 ± 22.3 µM | 40 nM | >250.0 | 2.3 | >106.8 | 93.6 nM | – | – | – | – | –
COCc1cc(=O)oc2cc(NC(=O)[C@@H](NC(=O)[C@H](C)NC(=O)OCc3ccccc3)C(C)(C)C)ccc12 [Compound 11, Z-Ala-tLeu-AMMC] | > 10 µM | 205 to 209 °C | > 10 µM | 41.3 ± 17.8 µM | 79.5 ± 7.24 µM | 336 nM | >29.7 | 0.5 | >58.3 | 172 nM | – | – | – | – | –
COC(=O)CNC(=O)N[C@@H](C)C(=O)Nc1ccc2c(C)cc(=O)oc2c1 [Compound 16, MeO-Gly-CO-Ala-AMC] | > 10 µM | 193 to 195 °C | > 10 µM | < 10 µM and 5.91 µM | > 100 µM | 38.2 nM | >261.8 | 4.8 | >54.6 | 183 nM | – | – | – | – | –
COCc1cc(=O)oc2cc(NC(=O)[C@H](C)NC(C)=O)ccc12 [Compound 7, Ac-Ala-AMMC] | > 10 µM | – | > 10 µM | 12 ± 0.693 µM | 45.6 ± 1.85 µM | – | >213.7 | 0.6 | >340.1 | 29.4 nM | 46.8 nM | – | – | – | –
Cc1cc(=O)oc2cc(NC(=O)[C@H](C)NC(=O)OCc3ccccc3)ccc12 [Compound 1, Z-Ala-AMC] | > 10 µM | – | > 10 µM | < 10 µM and 9.31 µM | > 100 µM | – | >90.9 | 0.3 | – | 30.5 nM | – | >327.9 | – | – | –
CC(=O)N[C@@H](C)C(=O)Nc1ccc2c(C)cc(=O)oc2c1 [Compound 6, Ac-Ala-AMC] | > 10 µM | – | > 10 µM | < 10 µM and 1.92 µM | > 100 µM | – | >327.9 | 0.8 | >427.3 | 23.4 nM | 30.5 nM | – | 52 | – | –
COCc1cc(=O)oc2cc(NC(=O)[C@H](C)NC(=O)N[C@@H](C)C(=O)OC)ccc12 [Compound 20, MeO-Ala-CO-Ala-AMMC] | > 10 µM | 148 to 150 °C | > 10 µM | > 100 µM | 75.3 ± 0.976 µM | 54.7 nM | >182.8 | 0.5 | >370.4 | 27 nM | – | – | – | – | –
Cc1cc(=O)oc2cc(NC(=O)[C@H](C)NC(=O)OCC3c4ccccc4-c4ccccc43)ccc12 [Compound 2, Fmoc-Ala-AMC] | > 10 µM | 153 to 155 °C | > 10 µM | 54.8 ± 0.028 µM | > 100 µM | 37.2 nM | >268.8 | 2.4 | >109.9 | 91 nM | – | – | – | – | –
COC(=O)[C@H](C)NC(=O)N[C@@H](C)C(=O)Nc1ccc2c(C)cc(=O)oc2c1 [Compound 17, MeO-Ala-CO-Ala-AMC] | > 10 µM | 193 to 195 °C | > 10 µM | 69.6 ± 9.28 µM | 58.6 ± 24 µM | 9.6 nM | >1041.7 | 17.0 | >61.2 | 163 nM | – | – | – | – | –
CCC(C)C(NC(=O)OCc1ccccc1)C(=O)Nc1ccc2c(COC)cc(=O)oc2c1 (stereo not drawn) [Compound 8, Z-Ile-AMMC] | > 10 µM | – | > 10 µM | 47 ± 13.5 µM | > 100 µM | 41.5 nM | >241.0 | 1.9 | >127.1 | 78.7 nM | – | – | – | – | –
CCOC(=O)CCNC(=O)N[C@@H](C)C(=O)Nc1ccc2c(C)cc(=O)oc2c1 [Compound 19, EtO-βAla-CO-Ala-AMC] | > 10 µM | 182 to 183 °C | > 10 µM | > 100 µM | > 100 µM | 9.5 nM | >1052.6 | 27.4 | >38.4 | 261 nM | – | – | – | completely devoid of activity | completely devoid of activity
